“And” between values parts separate entries of the source, which are not always exact repeats. Equal entries are not always repeated.
Test: xn = mol fraction of the nth substance listed

CC[n+]1ccn(C)c1.CO[PH](=O)[O-] + CS(C)=O
298.1 K, 100 kPa
Settings	electrical conductivity
x1 = 0.006	0.01 S/m
x1 = 0.01	0.13 S/m
x1 = 0.017	0.37 S/m and 0.45 S/m
x1 = 0.025	0.51 S/m and 0.68 S/m
x1 = 0.044	0.79 S/m
x1 = 0.059	0.93 S/m
x1 = 0.078	1.05 S/m
x1 = 0.123	1.15 S/m
x1 = 0.188	1.19 S/m
x1 = 0.267	1.13 S/m
x1 = 0.335	1.03 S/m
x1 = 0.453	0.88 S/m
x1 = 0.585	0.75 S/m
x1 = 0.763	0.59 S/m
x1 = 1	0.44 S/m

CCCCCCCCCCCCCC[n+]1ccccc1.O=C([O-])C(O)c1ccccc1 + NCC(=O)NCC(=O)O + O
electrical conductivity [S/m], 101 kPa
Settings	293.15 K	298.15 K	303.15 K	308.15 K	313.15 K
x1 = 5.26e-06, x2 = 0.0009002	0.00276	0.00323	0.00375	0.00433	0.005
x1 = 6.01e-06, x2 = 0.001799	0.00408	0.00487	0.00569	0.0066	0.0077
x1 = 6.85e-06, x2 = 0	0.00248	0.00278	0.00309	0.0034	0.0037
x1 = 9.97e-06, x2 = 0.0009002	0.00403	0.00465	0.00533	0.0061	0.0069
x1 = 1.185e-05, x2 = 0.001799	0.00561	0.00655	0.0076	0.0088	0.01
x1 = 1.424e-05, x2 = 0	0.00472	0.00529	0.00587	0.0065	0.0071
x1 = 1.486e-05, x2 = 0.0009002	0.0054	0.00621	0.0071	0.008	0.009
x1 = 1.713e-05, x2 = 0.001799	0.00703	0.0082	0.0094	0.0107	0.0122
x1 = 2.084e-05, x2 = 0.0009002	0.00697	0.008	0.0091	0.0102	0.0114
x1 = 2.126e-05, x2 = 0	0.00671	0.0076	0.0084	0.0093	0.0101
x1 = 2.26e-05, x2 = 0.001799	0.0085	0.0098	0.0112	0.0128	0.0144
x1 = 2.537e-05, x2 = 0.0009002	0.0082	0.0094	0.0106	0.012	0.0134
x1 = 2.788e-05, x2 = 0.001799	0.0098	0.0113	0.0129	0.0146	0.0165
x1 = 2.811e-05, x2 = 0	0.0086	0.0097	0.0108	0.0122	0.0131
x1 = 3.117e-05, x2 = 0.0009002	0.0097	0.0111	0.0125	0.014	0.0157
x1 = 3.335e-05, x2 = 0.001799	0.0111	0.0127	0.0145	0.0164	0.0184
x1 = 3.46e-05, x2 = 0	0.0103	0.0116	0.0129	0.0145	0.0157
x1 = 3.679e-05, x2 = 0.0009002	0.011	0.0125	0.0141	0.0159	0.0178
x1 = 3.864e-05, x2 = 0.001799	0.0122	0.014	0.0159	0.018	0.0203
x1 = 4.108e-05, x2 = 0	0.0117	0.0131	0.0146	0.0161	0.0179
x1 = 4.386e-05, x2 = 0.0009001	0.0123	0.014	0.0157	0.0177	0.0199
x1 = 4.574e-05, x2 = 0.001799	0.0134	0.0153	0.0174	0.0197	0.0222
x1 = 4.811e-05, x2 = 0	0.0129	0.0144	0.0161	0.0179	0.0198
x1 = 5.11e-05, x2 = 0.0009001	0.0133	0.0151	0.017	0.0192	0.0215
x1 = 5.321e-05, x2 = 0.001799	0.0145	0.0165	0.0187	0.0213	0.024
x1 = 5.388e-05, x2 = 0	0.0137	0.0154	0.0172	0.0191	0.0211
x1 = 5.781e-05, x2 = 0.0009001	0.0143	0.0162	0.0182	0.0205	0.023
x1 = 5.982e-05, x2 = 0	0.0145	0.0163	0.0182	0.0202	0.0224
x1 = 6.069e-05, x2 = 0.001799	0.0155	0.0177	0.02	0.0227	0.0254
x1 = 6.433e-05, x2 = 0.0009001	0.0152	0.0172	0.0193	0.0218	0.0244
x1 = 6.559e-05, x2 = 0	0.0153	0.0172	0.0192	0.0213	0.0236
x1 = 6.816e-05, x2 = 0.001799	0.0165	0.0187	0.0213	0.024	0.027
x1 = 7.081e-05, x2 = 0	0.016	0.018	0.02	0.0223	0.0246
x1 = 7.104e-05, x2 = 0.0009001	0.0161	0.0182	0.0204	0.023	0.0258
x1 = 7.454e-05, x2 = 0.001799	0.0173	0.0197	0.0222	0.0252	0.0283
x1 = 7.604e-05, x2 = 0	0.0167	0.0187	0.0209	0.0232	0.0258
x1 = 7.81e-05, x2 = 0.0009001	0.0171	0.0193	0.0217	0.0244	0.0273
x1 = 8.072e-05, x2 = 0	0.0173	0.0194	0.0217	0.0241	0.0266
x1 = 8.128e-05, x2 = 0.001799	0.0182	0.0207	0.0233	0.0265	0.0298

CC(=O)[O-].CC[NH2+]CC + CC(C)=O
298.15 K, 101 kPa
Settings	electrical conductivity [S/m]	viscosity [mPa·s]
x1 = 0.0095	0.001	–
x1 = 0.0238	0.033	–
x1 = 0.0523	0.085	–
x1 = 0.0729	0.131	–
x1 = 0.098	–	0.734
x1 = 0.0983	0.171	–
x1 = 0.194	–	1.092
x1 = 0.1981	0.328	–
x1 = 0.2979	0.427	–
x1 = 0.299	–	2.01
x1 = 0.401	0.479	–
x1 = 0.402	–	3.5
x1 = 0.4945	0.505	–
x1 = 0.5	–	5.74
x1 = 0.599	–	8.92
x1 = 0.6022	0.459	–
x1 = 0.701	–	14.91
x1 = 0.7021	0.427	–
x1 = 0.7971	0.387	–
x1 = 0.802	–	24.3
x1 = 0.9002	0.341	–
x1 = 0.903	–	38.6
x2 = 0.003	–	58.7

CCCCCC[N+]1(C)CCCC1.O=S(=O)([N-]S(=O)(=O)C(F)(F)F)C(F)(F)F + O=S1(=O)CCCC1
101.33 kPa, x1 = 0.5
Settings	viscosity [mPa·s]
303.25 K	30.7
313.25 K	22.1
323.25 K	16.4
333.15 K	12.2
343.15 K	9
353.15 K	7.2

— the CheMixHub ionic liquid set
